Bridge positions count the residues as written; N and C are the ends. Ends that are not written are not given here. I, II: the chains in the order shown.
Columns and labels:
[1] = test system: cerebellar granule neurons (CGNs); assay: Survival assay of CGNs induced to undergo apoptosis by potassium withdrawal; type: cell-based, Wistar rat; settings: for neuronal survival in apoptotic medium: 48 h, 5 mM KCl, serially diluted ARTN or artefin, paired t-test; for maximal neuroprotective effect / maximum level of neuronal survival: control 40 mM KCl = 100%, mean of five experiments
Experimental: (§1) Cerebellar granule neurons (CGNs) were prepared from 7-day-old Wistar rat pups (Charles River Laboratories, Sulzfeld, Germany) as previously described ([Schousboe et al., 1989]). Briefly, pups were decapitated, and the cerebellum was removed and cleared from blood vessels and meninges in ice-cold modified Krebs-Ringer buffer. The cerebellum was dissociated by chopping and trypsinization. Cells were washed in Krebs-Ringer buffer containing DNAse I (Sigma, St. Louis, MO, United States) and soybean trypsin inhibitor (Sigma) to stop trypsinization, and the remaining tissue pieces were pelleted by centrifugation. Cells were then washed in Krebs-Ringer buffer containing Ca^2+ and Mg^2+ and re-suspended in appropriate Neurobasal^TM medium (Invitrogen, Taastrup, Denmark) with supplements depending on the experiment.
Cerebellar granule neurons were re-suspended in Neurobasal^TM-A medium supplemented with 2% (v/v) B27 (Invitrogen, Taastrup, Denmark), 0.5% (v/v) glutamax, 100 U/ml penicillin, 100 μg/ml streptomycin, and 40 mM KCl, and seeded at a density of 1 × 10^5 cells/well in 8-well LabTek Permanox chamber slides (Nunc, Roskilde, Denmark) coated with poly-L-lysine (10 μg/ml). To avoid proliferation of non-neuronal cells, cytosine-β-D-arabinofuranoside (Sigma) was added to cells 24 h after plating. CGNs were allowed to differentiate for 7 days in vitro (DIV) in the presence of 40 mM KCl before being induced to undergo apoptosis by changing the medium to one containing only 5 mM KCl (apoptotic medium) ([D’Mello et al., 1993]). At 7 DIV, cells were washed and stimulated with serially diluted ARTN or artefin diluted in the apoptotic medium. Three different controls were included; (1) cells grown in medium containing 40 mM KCl served as a positive control; (2) cells grown in medium containing 5 mM KCl served as a negative control; (3) cells grown in medium containing 5 mM KCl supplemented with 50 ng/ml insulin growth factor-1 (IGF-1) (Life Technology), a known anti-apoptotic factor for CGNs in this setup ([Galli et al., 1995]). After 48 h following the induction of apoptosis, cells were fixated in 4% formaldehyde for 30 min, and nuclear morphology was visualized with Hoechst 33258 staining (Invitrogen, Taastrup, Denmark) (Figure 2A). Images of cells were obtained using a Nikon Diaphot 200 fluorescent microscope equipped with a Nikon Plan 40× objective (Nikon, Tokyo, Japan) and coupled to a black-white video camera. Images of at least 1000 cells/well in different fields of view were analyzed, and the percentage of viable neurons was estimated as the ratio of live cells (non-pyknotic cells with dispersed chromatin) to the total number of neurons.
FIGURE 2 Effect of ARTN and artefin on survival of cerebellar granular neurons (CGNs) induced to undergo apoptosis. CGNs were differentiated for 7 days in the presence of 40 mM KCl before apoptosis was induced by potassium withdrawal. (A) Nuclear morphology of CGNs after Hoechst 33258 staining. […] Scale bar: 100 μm. Cells were grown for 48 h in media, containing 40 mM KCl, apoptotic medium (5 mM KCl) or apoptotic medium supplemented with 50 ng/ml IGF-1 (positive control) (B), serially diluted ARTN (C), or artefin (D). Each experiment was performed in the presence of the three controls (40 mM KCl, 5 mM KCl, and 5 mM KCl plus IGF-1), and the survival effect of the growth factor and the peptide was compared to its own apoptotic control (5 mM KCl). Results from the five experiments are expressed as percentage of 40 mM KCl control set at 100% and presented as mean ± SEM. The anti-apoptotic effect of ARTN and artefin was tested using Student’s paired t-test, where ^∗p < 0.05; ^∗∗p < 0.01; ^∗∗∗p < 0.001; ^∗∗∗∗p < 0.0001.

[2] = test system: NCAM; cerebellar granule neurons (CGNs); assay: Neurite outgrowth in CGNs with NCAM knock down (NCAM shRNA); type: cell-based, Wistar rat; settings: 24 h, P2-d 8 μg/ml, ARTN 0.21 nM, artefin 1.4 μM; for neurite outgrowth in NCAM knock down neurons: NCAM shRNA; for neurite outgrowth in mock-transfected neurons: empty vector, versus control
Experimental: as §1
To evaluate the involvement of NCAM and RET in neurite outgrowth induced by either ARTN or artefin, CGNs (3 × 10^6 per transfection) were transfected with 3 μg DNA using a Nucleofector^TM 2b device and a Rat Neuron Nucleofector Kit (Amaxa, Inc., Gaithersburg, MD, United States). A kinase-deleted dominant negative RET insert was obtained by direct PCR using a commercially available clone (IRAKp961P02132Q; RZPD, Berlin, Germany) encoding full-length mouse RET coding sequence 586–3807 nt. as template. The upper primer […] contained a NheI restriction site and Kozak sequence, and the lower primer […] encoded Streptag II and NotI restriction sites. The dominant negative RET insert and the pcDNA5/FRT expression vector containing the Flp-In system were cut with NheI and NotI restriction enzymes, purified, ligated using the Rapid DNA Ligation Kit (Roche, Basel, Switzerland), and transfected into One Shot TOP10 E. coli (Invitrogen, Taastrup, Denmark). E. coli colonies containing the dominant negative RET insert were identified by PCR, and one insert-positive colony was used for plasmid purification. The identity of the purified plasmid was verified by restriction cutting and sequencing of the insert. For NCAM knock down, we used a pENTR vector containing the shRNA expression cassette for NCAM knock down ([Hansen et al., 2007]). An empty vector was used as a control. To identify transfected neurons, all transfections were performed as co-transfections with 0.5 μg pEGFP-N1, an expression vector encoding the enhanced variant of green fluorescent protein (GFP; Clontech, Palo Alto, CA, United States). Transfected CGNs were seeded in Neurobasal^TM-A medium supplemented with 2% (v/v) B27, 5% (v/v) FCS, and 2 mM Glutamax at a density of 1 × 10^5 cells/cm^2.
To estimate neurite outgrowth, neurons were fixated 24 h after stimulation and stained with rabbit anti-growth-associated-protein-43 (GAP-43) antibody (Chemicon International, Inc., Temecula, CA, United States) or anti-GFP antibody (for transfection experiment) overnight at 4°C followed by incubation with secondary Alexa-conjugated goat anti-rabbit antibodies (Invitrogen, Taastrup, Denmark). In case of experiments with plasmid transfection, the transfection efficiency was ca. 20% of total cells and the neurite outgrowth was evaluated only in GFP-positive, i.e., transfected, cells. For representative pictures, cells were additionally co-stained with Hoechst 33258.
Computer-assisted fluorescent microscopy was performed using a Nikon Diaphot 300 inverted microscope (Nikon) equipped with a Nikon Plan 20× objective and coupled to a video camera (Grundig Electronics, Germany). For each condition in each experiment, including the experiment with transfections, images of approximately 200 cells were recorded in systematic series of fields of view, and neurite outgrowth was quantified using a stereological approach as previously described ([Rønn et al., 2000]).
FIGURE 7 Neuritogenic effect of ARTN and artefin in (A) dominant negative RET or (B) knock down NCAM-expressing CGNs. […]

[3] = 48 h in apoptotic medium (5 mM KCl)

Molecule	neuronal survival in apoptotic medium [1]	concentration of maximum neuronal survival [1, 3]	maximal neuroprotective effect / maximum level of neuronal survival [1, 3]	neurite outgrowth in NCAM knock down neurons [2]	neurite outgrowth in mock-transfected neurons [2]	concentration of maximal neuroprotective effect [1, 3]
I: RSPHDLSLASLLGAGKK-NH2 / II: RSPHDLSLASLLGAGK / III: RSPHDLSLASLLGAG / IV: RSPHDLSLASLLGAG (amide I:16-IV:C, I:17-II:C, II:16-III:C; C-terminus assumed) [artefin]	significantly promoted neuronal survival	0.156 µM	72.95 % of control	abrogated in neurons where NCAM expression was knocked down (p < 0.001	promoted the neurite outgrowth in mock-transfected neurons (p < 0.01)	–
recombinant human Artemin (ARTN) (ligand, UniProt Q5T4W7 108-220, looked up, Artemin (ARTN), human, UniProt D3DPX9; source: bought: R&D Systems) AGGPGSRARAAGARGCRLRSQLVPVRALGLGHRSDELVRFRFCSGSCRRARSPHDLSLASLLGAGALRPPPGSRPVSQPCCRPTRYEAVSFMDVNSTWRTVDRLSATACGCLG	promoted the survival of CGNs in culture in a dose-dependent manner	–	68.3 % of control	completely abolished the neurite outgrowth effect of ARTN	significantly higher level of neurite outgrowth compared to unstimulated controls (p < 0.05	4 pM
